Source: ChEMBL document CHEMBL1201862, “PubChem BioAssay data set” (2004)
Values joined by “and” are separate entries in the source; they are usually repeats but may differ in a detail not shown here. Equal values may be shown once. Active and inactive are the calls of the source.

Experiments:
Assay type in all cases: functional
[1] = target: T1, Apoptotic protease-activating factor 1 (Homo sapiens, UniProt O14727); experiment: SAR analysis of small molecule Activators of Apaf-1 in a Fluorescent assay - set 2.; conditions: read-out: EC50_Mean
T1 sequence (O14727 whole entry): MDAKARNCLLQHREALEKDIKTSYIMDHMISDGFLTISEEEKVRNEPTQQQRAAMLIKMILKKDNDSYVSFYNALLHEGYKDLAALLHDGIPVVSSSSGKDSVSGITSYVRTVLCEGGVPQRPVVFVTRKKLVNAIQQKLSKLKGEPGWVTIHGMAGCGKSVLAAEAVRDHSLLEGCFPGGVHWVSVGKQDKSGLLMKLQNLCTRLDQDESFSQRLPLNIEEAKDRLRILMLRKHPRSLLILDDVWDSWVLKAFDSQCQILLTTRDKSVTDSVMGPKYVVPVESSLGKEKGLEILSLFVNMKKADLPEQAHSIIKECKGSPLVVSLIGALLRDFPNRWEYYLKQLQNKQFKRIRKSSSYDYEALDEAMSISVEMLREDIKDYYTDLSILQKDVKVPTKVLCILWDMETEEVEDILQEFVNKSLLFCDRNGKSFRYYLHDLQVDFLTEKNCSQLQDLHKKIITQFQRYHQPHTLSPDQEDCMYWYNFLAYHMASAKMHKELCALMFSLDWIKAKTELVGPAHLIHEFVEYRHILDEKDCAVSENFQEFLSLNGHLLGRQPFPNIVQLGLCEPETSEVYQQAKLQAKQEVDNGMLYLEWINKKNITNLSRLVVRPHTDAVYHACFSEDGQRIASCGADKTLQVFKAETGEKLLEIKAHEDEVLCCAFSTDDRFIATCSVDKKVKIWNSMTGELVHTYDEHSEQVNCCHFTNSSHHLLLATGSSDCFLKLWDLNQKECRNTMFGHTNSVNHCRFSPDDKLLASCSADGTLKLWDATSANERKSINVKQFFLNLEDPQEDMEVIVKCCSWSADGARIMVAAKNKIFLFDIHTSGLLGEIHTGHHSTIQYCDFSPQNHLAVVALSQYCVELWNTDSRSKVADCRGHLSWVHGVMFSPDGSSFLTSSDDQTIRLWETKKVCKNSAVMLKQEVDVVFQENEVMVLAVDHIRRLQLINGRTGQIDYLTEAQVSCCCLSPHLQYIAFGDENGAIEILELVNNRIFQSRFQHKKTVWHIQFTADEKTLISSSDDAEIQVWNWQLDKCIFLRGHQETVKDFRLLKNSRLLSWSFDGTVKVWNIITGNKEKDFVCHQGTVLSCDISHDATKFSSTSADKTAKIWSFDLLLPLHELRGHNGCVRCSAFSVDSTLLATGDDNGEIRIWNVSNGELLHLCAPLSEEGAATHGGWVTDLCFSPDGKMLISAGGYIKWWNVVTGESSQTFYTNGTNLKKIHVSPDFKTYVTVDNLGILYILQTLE

[2] = target: T1, Apoptotic protease-activating factor 1; experiment: SAR analysis of small molecule Activators of Apaf-1 in a Fluorescent assay.; conditions: read-out: EC50_Mean
[3] = target: T1, Apoptotic protease-activating factor 1; experiment: activation of Apaf-1 mediated apoptosis – fluorescent, uHTS hits, dose response (AID 588554)
[4] = SAR analysis of small molecule activators of Apaf-1 using a LZ-Caspase-9/Caspase-3 Fluorescent Selectivity assay - Set 2.; conditions: read-out: EC50_Mean
[5] = target: Melanin-concentrating hormone receptor 1 (Homo sapiens, UniProt Q99705); experiment: Late-stage fluorescence-based counterscreen for antagonists of the G-protein coupled receptor 7 (GPR7): cell-based dose response assay to identify antagonists of the melanin-concentrating hormone receptor 1 (MCHR1) Set 6.
[6] = target: Neuropeptides B/W receptor type 1 (Homo sapiens, UniProt P48145); experiment: GPR7 antagonist potency, late-stage follow-up, cell-based, fluorescence, dose response, set 6 (AID 588583)
[7] = target: Protein kinase C theta type (Homo sapiens, UniProt Q04759); experiment: Navigating the Kinome. Panel member name: PRKCQ
[8] = target: Dual specificity protein kinase CLK2 (Homo sapiens, UniProt P49760)
[9] = target: Cyclin-dependent kinase 7 (Homo sapiens, UniProt P50613);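 note: value comes from a kinome-wide kinase profiling panel in which CDK7 is one member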
[10] = target: G protein-coupled receptor kinase 5 (Homo sapiens, UniProt P34947); experiment: Navigating the Kinome. Panel member name: GPRK5
[11] = target: Tyrosine-protein kinase BTK (Homo sapiens, UniProt Q06187)
[12] = target: Death-associated protein kinase 3 (Homo sapiens, UniProt O43293);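 note: measured as one member of a kinome-wide profiling panel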
[13] = target: Serine/threonine-protein kinase pim-1 (Homo sapiens, UniProt P11309)
[14] = target: BDNF/NT-3 growth factors receptor (Homo sapiens, UniProt Q16620);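 note: NTRK2 measured as one member of a broad kinome-wide kinase profiling panel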
[15] = target: Cyclin-dependent kinase 8 (Homo sapiens, UniProt P49336); experiment: Navigating the Kinome. Panel member name: CDK8
[16] = target: Tyrosine-protein kinase JAK2 (Homo sapiens, UniProt O60674);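 note: JAK2 tested as one member of a kinase panel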
Activin receptor type-1 = Activin receptor type-1 (Homo sapiens, UniProt Q04771); experiment: Navigating the Kinome. Panel member name: ACVR1
[17] = target: ALK tyrosine kinase receptor (Homo sapiens, UniProt Q9UM73);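 note: ALK tested as one member of a kinase panel screen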
Activated CDC42 kinase 1 = Activated CDC42 kinase 1 (Homo sapiens, UniProt Q07912); experiment: Navigating the Kinome. Panel member name: ACK1
Activated CDC42 kinase 1, sequence (Q07912 whole entry): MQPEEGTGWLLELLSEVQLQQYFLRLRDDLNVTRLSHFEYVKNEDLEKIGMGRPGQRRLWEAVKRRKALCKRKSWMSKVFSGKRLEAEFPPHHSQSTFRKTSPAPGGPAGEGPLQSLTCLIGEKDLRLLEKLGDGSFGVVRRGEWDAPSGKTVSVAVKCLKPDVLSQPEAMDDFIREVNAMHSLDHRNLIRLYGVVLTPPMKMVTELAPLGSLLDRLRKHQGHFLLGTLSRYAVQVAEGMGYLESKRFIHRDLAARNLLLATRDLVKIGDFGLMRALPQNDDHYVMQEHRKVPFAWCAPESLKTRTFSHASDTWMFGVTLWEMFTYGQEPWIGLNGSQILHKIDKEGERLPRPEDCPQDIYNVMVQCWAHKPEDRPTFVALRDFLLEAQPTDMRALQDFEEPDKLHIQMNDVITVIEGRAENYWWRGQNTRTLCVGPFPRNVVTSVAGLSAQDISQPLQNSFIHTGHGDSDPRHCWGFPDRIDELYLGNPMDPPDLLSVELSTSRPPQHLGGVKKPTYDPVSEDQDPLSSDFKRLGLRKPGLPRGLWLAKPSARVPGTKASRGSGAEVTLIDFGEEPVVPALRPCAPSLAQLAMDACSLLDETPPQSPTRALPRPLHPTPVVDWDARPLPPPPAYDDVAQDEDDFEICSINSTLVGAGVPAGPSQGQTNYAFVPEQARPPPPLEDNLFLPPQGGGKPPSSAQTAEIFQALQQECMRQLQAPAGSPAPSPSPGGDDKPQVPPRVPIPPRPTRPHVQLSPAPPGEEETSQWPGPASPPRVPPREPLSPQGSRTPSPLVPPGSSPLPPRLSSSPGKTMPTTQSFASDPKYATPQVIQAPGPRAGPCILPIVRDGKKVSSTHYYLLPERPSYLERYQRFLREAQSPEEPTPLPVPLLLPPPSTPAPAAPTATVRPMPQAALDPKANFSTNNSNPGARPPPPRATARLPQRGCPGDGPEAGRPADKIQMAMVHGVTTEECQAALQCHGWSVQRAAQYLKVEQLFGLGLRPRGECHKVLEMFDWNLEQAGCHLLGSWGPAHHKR

[18] = target: Serine/threonine-protein kinase PAK 4 (Homo sapiens, UniProt O96013);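 note: value obtained within a kinome profiling panel in which PAK4 was one of the panel members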
[19] = target: Insulin-like growth factor 1 receptor (Homo sapiens, UniProt P08069); experiment: Navigating the Kinome. Panel member name: IGF1R
Insulin-like growth factor 1 receptor, sequence (P08069 31-736 limits assumed): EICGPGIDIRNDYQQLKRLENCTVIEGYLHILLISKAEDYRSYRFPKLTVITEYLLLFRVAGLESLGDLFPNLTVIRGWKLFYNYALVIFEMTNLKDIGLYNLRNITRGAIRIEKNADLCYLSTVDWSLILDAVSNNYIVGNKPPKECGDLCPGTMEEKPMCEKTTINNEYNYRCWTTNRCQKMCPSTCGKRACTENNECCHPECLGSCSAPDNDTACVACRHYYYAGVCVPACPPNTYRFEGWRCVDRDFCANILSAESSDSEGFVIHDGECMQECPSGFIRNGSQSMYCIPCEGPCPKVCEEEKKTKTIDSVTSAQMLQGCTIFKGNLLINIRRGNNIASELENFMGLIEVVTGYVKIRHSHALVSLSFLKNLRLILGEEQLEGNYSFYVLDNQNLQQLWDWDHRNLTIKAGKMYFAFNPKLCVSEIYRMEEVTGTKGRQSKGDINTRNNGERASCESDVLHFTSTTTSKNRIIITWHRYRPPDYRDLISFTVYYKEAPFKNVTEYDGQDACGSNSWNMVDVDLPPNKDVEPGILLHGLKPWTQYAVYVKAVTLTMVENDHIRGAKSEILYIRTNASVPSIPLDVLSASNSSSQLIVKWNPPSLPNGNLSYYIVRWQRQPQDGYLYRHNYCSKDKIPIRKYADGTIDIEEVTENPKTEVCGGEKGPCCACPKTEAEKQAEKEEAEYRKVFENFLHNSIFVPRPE
Insulin-like growth factor 1 receptor, sequence (P08069 741-1367 limits assumed): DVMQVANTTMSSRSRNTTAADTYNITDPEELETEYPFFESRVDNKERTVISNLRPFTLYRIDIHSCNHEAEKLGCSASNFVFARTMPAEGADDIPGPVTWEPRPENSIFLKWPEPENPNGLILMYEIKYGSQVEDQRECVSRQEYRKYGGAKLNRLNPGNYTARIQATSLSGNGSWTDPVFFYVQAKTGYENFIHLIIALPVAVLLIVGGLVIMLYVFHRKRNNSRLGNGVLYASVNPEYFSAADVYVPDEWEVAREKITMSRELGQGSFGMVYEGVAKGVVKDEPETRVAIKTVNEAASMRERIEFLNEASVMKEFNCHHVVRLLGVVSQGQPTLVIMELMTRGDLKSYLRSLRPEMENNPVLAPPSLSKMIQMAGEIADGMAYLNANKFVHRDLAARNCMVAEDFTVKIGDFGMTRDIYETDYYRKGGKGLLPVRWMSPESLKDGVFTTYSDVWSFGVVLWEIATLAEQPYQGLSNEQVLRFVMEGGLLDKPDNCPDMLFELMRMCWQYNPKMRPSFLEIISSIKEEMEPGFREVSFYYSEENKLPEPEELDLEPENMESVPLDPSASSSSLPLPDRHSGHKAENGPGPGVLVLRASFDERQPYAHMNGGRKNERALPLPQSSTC

[20] = target: Macrophage colony-stimulating factor 1 receptor (Homo sapiens, UniProt P07333);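 note: value comes from the Navigating the Kinome screening panel, CSF1R member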
[21] = target: Glycogen synthase kinase-3 alpha (Homo sapiens, UniProt P49840);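 note: GSK3A result taken from a broad kinome-wide kinase panel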
[22] = target: Serine/threonine-protein kinase D3 (Homo sapiens, UniProt O94806);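 note: determined within a kinase panel screen, with PRKCN as the panel member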
[23] = target: Dual specificity tyrosine-phosphorylation-regulated kinase 1B (Homo sapiens, UniProt Q9Y463); experiment: Navigating the Kinome. Panel member name: DYRK1B
Dual specificity tyrosine-phosphorylation-regulated kinase 1B, sequence (Q9Y463 whole entry): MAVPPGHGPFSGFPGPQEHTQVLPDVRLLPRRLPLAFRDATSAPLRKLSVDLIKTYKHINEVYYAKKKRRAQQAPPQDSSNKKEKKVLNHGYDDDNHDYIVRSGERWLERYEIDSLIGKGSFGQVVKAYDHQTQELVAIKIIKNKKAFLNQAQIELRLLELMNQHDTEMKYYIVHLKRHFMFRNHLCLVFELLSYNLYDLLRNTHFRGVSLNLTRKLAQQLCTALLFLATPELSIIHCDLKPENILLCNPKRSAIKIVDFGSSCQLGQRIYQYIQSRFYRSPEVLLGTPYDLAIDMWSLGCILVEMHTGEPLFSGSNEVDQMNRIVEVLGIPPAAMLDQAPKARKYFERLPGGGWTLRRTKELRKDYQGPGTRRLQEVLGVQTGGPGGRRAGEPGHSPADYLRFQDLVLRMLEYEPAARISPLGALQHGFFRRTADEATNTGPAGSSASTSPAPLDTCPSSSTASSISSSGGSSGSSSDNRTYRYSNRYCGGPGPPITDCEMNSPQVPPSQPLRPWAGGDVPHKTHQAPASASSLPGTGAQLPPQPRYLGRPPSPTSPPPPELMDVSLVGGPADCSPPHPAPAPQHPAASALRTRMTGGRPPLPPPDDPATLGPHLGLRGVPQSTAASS

[24] = target: 5'-AMP-activated protein kinase catalytic subunit alpha-1 (Homo sapiens, UniProt Q13131)
5'-AMP-activated protein kinase catalytic subunit alpha-1, sequence (Q13131 whole entry): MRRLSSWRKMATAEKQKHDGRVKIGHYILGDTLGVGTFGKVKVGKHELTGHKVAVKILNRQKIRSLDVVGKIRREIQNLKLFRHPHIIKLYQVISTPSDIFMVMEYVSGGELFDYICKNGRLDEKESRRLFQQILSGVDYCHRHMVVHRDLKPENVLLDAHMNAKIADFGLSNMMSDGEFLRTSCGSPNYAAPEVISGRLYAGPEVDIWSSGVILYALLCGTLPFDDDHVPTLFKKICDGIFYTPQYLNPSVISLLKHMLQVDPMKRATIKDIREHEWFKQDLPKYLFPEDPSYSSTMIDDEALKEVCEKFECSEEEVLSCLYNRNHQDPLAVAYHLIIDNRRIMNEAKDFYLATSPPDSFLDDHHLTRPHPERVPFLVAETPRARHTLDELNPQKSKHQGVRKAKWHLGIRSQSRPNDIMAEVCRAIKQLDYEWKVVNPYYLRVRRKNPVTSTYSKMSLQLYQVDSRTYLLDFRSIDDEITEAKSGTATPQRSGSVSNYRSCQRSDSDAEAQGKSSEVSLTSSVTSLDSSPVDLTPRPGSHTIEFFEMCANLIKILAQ

[25] = target: Macrophage-stimulating protein receptor (Homo sapiens, UniProt Q04912); experiment: Navigating the Kinome. Panel member name: MST1R
[26] = target: Dual specificity mitogen-activated protein kinase kinase 2 (Homo sapiens, UniProt P36507); experiment: Navigating the Kinome. Panel member name: MAP2K2
[27] = target: Fibroblast growth factor receptor 1 (Homo sapiens, UniProt P11362)
[28] = target: Tyrosine-protein kinase Fyn (Homo sapiens, UniProt P06241)
[29] = target: Rho-associated protein kinase 1 (Homo sapiens, UniProt Q13464);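 note: measured within a broad kinome-wide panel profiling many kinases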
[30] = target: Dual specificity mitogen-activated protein kinase kinase 1 (Homo sapiens, UniProt Q02750); experiment: Navigating the Kinome. Panel member name: MAP2K1
[31] = target: Mitogen-activated protein kinase kinase kinase kinase 4 (Homo sapiens, UniProt O95819)
Aurora kinase A = Aurora kinase A (Homo sapiens, UniProt O14965);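 note: value from the Navigating the Kinome kinase panel profiling, panel entry STK6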
[32] = target: Platelet-derived growth factor receptor alpha (Homo sapiens, UniProt P16234); experiment: Navigating the Kinome. Panel member name: PDGFRA
[33] = target: cAMP-dependent protein kinase catalytic subunit alpha (Homo sapiens, UniProt P17612)
[34] = target: Mitogen-activated protein kinase 9 (Homo sapiens, UniProt P45984);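 note: value from a kinome panel profiling assay, MAPK9 panel entry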
[35] = target: Leukocyte tyrosine kinase receptor (Homo sapiens, UniProt P29376); experiment: Navigating the Kinome. Panel member name: LTK
Leukocyte tyrosine kinase receptor, sequence (P29376 whole entry): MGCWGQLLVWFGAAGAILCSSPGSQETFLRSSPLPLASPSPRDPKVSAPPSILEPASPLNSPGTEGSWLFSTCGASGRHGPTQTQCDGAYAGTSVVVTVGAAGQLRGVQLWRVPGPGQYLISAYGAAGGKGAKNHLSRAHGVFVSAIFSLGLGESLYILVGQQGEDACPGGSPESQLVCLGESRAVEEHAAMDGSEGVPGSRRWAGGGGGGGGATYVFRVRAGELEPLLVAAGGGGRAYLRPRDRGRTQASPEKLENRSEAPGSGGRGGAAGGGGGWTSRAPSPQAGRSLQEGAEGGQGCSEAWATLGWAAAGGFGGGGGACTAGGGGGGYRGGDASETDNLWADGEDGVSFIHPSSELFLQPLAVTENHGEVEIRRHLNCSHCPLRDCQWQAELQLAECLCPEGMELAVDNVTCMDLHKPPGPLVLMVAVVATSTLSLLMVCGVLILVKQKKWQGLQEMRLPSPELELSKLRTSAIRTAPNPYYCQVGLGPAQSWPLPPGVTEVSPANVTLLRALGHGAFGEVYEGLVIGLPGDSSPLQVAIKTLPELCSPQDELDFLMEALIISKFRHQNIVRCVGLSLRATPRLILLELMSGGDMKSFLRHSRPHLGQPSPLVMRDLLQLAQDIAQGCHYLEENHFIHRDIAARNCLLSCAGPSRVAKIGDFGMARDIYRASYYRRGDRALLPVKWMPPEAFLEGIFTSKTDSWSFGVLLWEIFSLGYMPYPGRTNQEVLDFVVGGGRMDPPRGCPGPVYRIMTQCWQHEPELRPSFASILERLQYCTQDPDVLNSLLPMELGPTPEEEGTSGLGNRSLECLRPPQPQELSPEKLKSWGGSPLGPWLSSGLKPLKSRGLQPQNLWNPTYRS

[36] = target: Leucine-rich repeat serine/threonine-protein kinase 2 (Homo sapiens, UniProt Q5S007);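 note: value from a broad kinome-wide panel profiling study in which LRRK2 was one of the kinases tested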
[37] = target: Mitogen-activated protein kinase kinase kinase kinase 2 (Homo sapiens, UniProt Q12851);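 note: measured as one member of a kinome-wide kinase panel, with MAP4K2 as the panel entry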
[38] = target: Serine/threonine-protein kinase TBK1 (Homo sapiens, UniProt Q9UHD2); experiment: Navigating the Kinome. Panel member name: TBK1
Aurora kinase B = Aurora kinase B (Homo sapiens, UniProt Q96GD4)
[39] = target: Dual specificity protein kinase CLK4 (Homo sapiens, UniProt Q9HAZ1)
[40] = target: Tyrosine-protein kinase receptor TYRO3 (Homo sapiens, UniProt Q06418);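 note: TYRO3 value obtained as one member of a kinome-wide profiling panel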
[41] = target: Serine/threonine-protein kinase TAO1 (Homo sapiens, UniProt Q7L7X3)
[42] = target: Dual specificity tyrosine-phosphorylation-regulated kinase 1A (Homo sapiens, UniProt Q13627);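 note: measured against DYRK1A as one member of a broad kinome profiling panel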
[43] = target: Glycogen synthase kinase-3 beta (Homo sapiens, UniProt P49841);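 note: value comes from a broad kinome profiling panel, with GSK3B as the panel member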
[44] = target: Tyrosine-protein kinase ABL1 (Homo sapiens, UniProt P00519)
[45] = target: Mitogen-activated protein kinase 8 (Homo sapiens, UniProt P45983);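 note: value comes from one member of a kinome-wide kinase profiling panel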
Mitogen-activated protein kinase 8, sequence (P45983 whole entry): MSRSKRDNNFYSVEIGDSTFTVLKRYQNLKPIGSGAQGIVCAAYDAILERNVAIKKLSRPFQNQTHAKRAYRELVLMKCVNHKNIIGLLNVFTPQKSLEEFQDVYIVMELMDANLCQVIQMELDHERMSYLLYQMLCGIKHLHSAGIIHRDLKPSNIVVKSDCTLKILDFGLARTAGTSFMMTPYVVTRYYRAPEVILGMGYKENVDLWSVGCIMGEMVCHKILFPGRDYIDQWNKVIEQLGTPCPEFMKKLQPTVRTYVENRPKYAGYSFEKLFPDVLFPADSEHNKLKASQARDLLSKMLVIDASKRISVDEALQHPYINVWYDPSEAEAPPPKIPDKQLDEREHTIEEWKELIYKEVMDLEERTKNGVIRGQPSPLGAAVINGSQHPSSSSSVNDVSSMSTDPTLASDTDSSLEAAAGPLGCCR

[46] = target: High affinity nerve growth factor receptor (Homo sapiens, UniProt P04629);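 note: NTRK1 tested as one member of a kinome-wide profiling panel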
[47] = target: Proto-oncogene tyrosine-protein kinase receptor Ret (Homo sapiens, UniProt P07949);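 note: measured within a kinome-wide profiling panel, RET as the panel member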
[48] = target: Ribosomal protein S6 kinase alpha-3 (Homo sapiens, UniProt P51812);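 note: measured within a kinome-wide profiling panel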
[49] = target: Calcium/calmodulin-dependent protein kinase type II subunit alpha (Homo sapiens, UniProt Q9UQM7); experiment: Navigating the Kinome. Panel member name: CAMK2A
[50] = target: Vascular endothelial growth factor receptor 2 (Homo sapiens, UniProt P35968)
[51] = target: Hepatocyte growth factor receptor (Homo sapiens, UniProt P08581);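 note: kinase panel profiling across the kinome, with MET as the panel member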
[52] = target: cAMP-dependent protein kinase catalytic subunit PRKX (Homo sapiens, UniProt P51817)
[53] = target: Cyclin-dependent kinase 5 (Homo sapiens, UniProt Q00535);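 note: CDK5 measured as one member of a kinase profiling panel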
[54] = target: Tyrosine-protein kinase JAK3 (Homo sapiens, UniProt P52333)
[55] = target: Vascular endothelial growth factor receptor 1 (Homo sapiens, UniProt P17948);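 note: measured within a kinome-wide profiling panel, FLT1 as the panel member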
[56] = target: Cyclin-dependent kinase 9 (Homo sapiens, UniProt P50750);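 note: value from the CDK9 entry of a kinome-spanning kinase panel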
[57] = target: Inhibitor of nuclear factor kappa-B kinase subunit epsilon (Homo sapiens, UniProt Q14164); experiment: Navigating the Kinome. Panel member name: IKBKE
[58] = target: Mitogen-activated protein kinase 14 (Homo sapiens, UniProt Q16539);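 note: part of a kinome-wide panel, MAPK14 entry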
[59] = target: Receptor-type tyrosine-protein kinase FLT3 (Homo sapiens, UniProt P36888);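 note: FLT3 was tested as one member of a kinome-wide kinase panel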

With CC(Cc1c[nH]c2ccccc12)C(=O)O (stereo not drawn) the EC50 [1] was 9.48 µM (active) and 8.03 µM (active), the EC50 [2] was 8.95 µM (active) and the EC50 [3] was 2.25 µM (active). The EC50 [4] was > 99 µM (inactive) and > 100 µM (inactive).
In the case of N#CC(c1ccsc1)c1c(Br)cnn(Cc2cccc3ccccc23)c1=O (stereo not drawn), the IC50 [5] is reported as 0.417 µM (active) and the IC50 [6] is reported as 0.417 µM (active).
For O=C(Nc1cccc(C(F)(F)F)n1)Nc1ccnc2ccc(Cl)cc12, the Ki [7] was > 2.51 µM (inactive), the Ki [8] was 3.16 µM (active) and the Ki [9] was > 3.98 µM (inactive). The Ki [10] was > 3.98 µM (inactive), the Ki [11] was > 6.31 µM (inactive) and the Ki [12] was 5.01 µM (active). The Ki [13] was > 6.31 µM (inactive), the Ki [14] was > 3.98 µM (inactive) and the Ki [15] was 0.0631 µM (active). The Ki [16] was > 2.51 µM (inactive), the Ki (Activin receptor type-1) was 1.58 µM (active) and the Ki [17] was > 6.31 µM (inactive). For the same compound, the Ki (Activated CDC42 kinase 1) was > 3.98 µM (inactive), the Ki [18] was > 5.01 µM (inactive) and the Ki [19] was > 2.51 µM (inactive). For the same compound, the Ki [20] was > 2.51 µM (inactive), the Ki [21] was 0.0631 µM (active) and the Ki [22] was > 3.98 µM (inactive). For the same compound, the Ki [23] was 1.58 µM (active), the Ki [24] was > 3.16 µM (inactive) and the Ki [25] was > 3.98 µM (inactive). For the same compound, the Ki [26] was > 3.98 µM (inactive), the Ki [27] was > 3.98 µM (inactive) and the Ki [28] was > 6.31 µM (inactive). The Ki [29] was > 3.98 µM (inactive), the Ki [30] was > 3.16 µM (inactive) and the Ki [31] was > 5.01 µM (inactive). For the same compound, the Ki (Aurora kinase A) was > 1.58 µM (inactive), the Ki [32] was > 2.51 µM (inactive) and the Ki [33] was > 1.26 µM (inactive). The Ki [34] was > 3.98 µM (inactive), the Ki [35] was > 2.51 µM (inactive) and the Ki [36] was > 2.51 µM (inactive). The Ki [37] was > 2.51 µM (inactive), the Ki [38] was > 3.16 µM (inactive) and the Ki (Aurora kinase B) was > 3.98 µM (inactive). For the same compound, the Ki [39] was 0.158 µM (active), the Ki [40] was 2.51 µM (active) and the Ki [41] was > 6.31 µM (inactive). The Ki [42] was > 2 µM (inactive), the Ki [43] was 0.0398 µM (active) and the Ki [44] was 2 µM (active). For the same compound, the Ki [45] was > 5.01 µM (inactive), the Ki [46] was > 3.16 µM (inactive) and the Ki [47] was > 3.16 µM (inactive). For the same compound, the Ki [48] was > 3.98 µM (inactive), the Ki [49] was > 7.94 µM (inactive) and the Ki [50] was > 2.51 µM (inactive). The Ki [51] was > 2.51 µM (inactive), the Ki [52] was > 3.16 µM (inactive) and the Ki [53] was > 3.16 µM (inactive). For the same compound, the Ki [54] was > 5.01 µM (inactive), the Ki [55] was > 3.98 µM (inactive) and the Ki [56] was > 1.58 µM (inactive). The Ki [57] was > 3.16 µM (inactive), the Ki [58] was > 3.98 µM (inactive) and the Ki [59] was > 3.16 µM (inactive).
